According to patent US12061143B2, “Methods for rapid determinations of antibiotic susceptibility phenotypes” (priority 2018, dated 2024):
Values after ≈ are worked out from the molar mass of the structure shown. Where two headings read alike, the source gives them in different places.

Assays:
Assay type in all cases: cell-based
[1] = tested on: 10% human blood samples without bacteria inoculation; test: Antibiotic-treated 10% human blood only control (no bacteria), flow cytometry; settings: 10% human blood without bacteria, around the resistance breakpoints of Enterobacteriaceae
Experimental: FIGS. 6A-6D. Antibiotic-treated 10% human blood only results. Cytometric data with (FIG. 6A) Ampicillin (FIG. 6B) Tetracycline (FIG. 6C) Gentamicin. The greyscale plots are the no-antibiotic controls and the black contour plots are the antibiotic-treated data with the antibiotic concentration indicated at each plot. (FIG. 6D) PB-sQF results for FIGS. 6A-6C). […] For each antibiotic, the resistant breakpoints of Enterobacteriaceae are 16 μg/mL for tetracycline and gentamicin and 32 μg/mL for ampicillin.
This confirms that the gentamicin sensitivity of Mu14S observed after blood culture^(1) can also be observed on much shorter timescales with FAST. Overnight plating confirms that initial Mu14S counts were 3, 2, 5 and CFU/mL for tetracycline, gentamicin and ampicillin data after 10-fold dilution of the blood/bacteria mixture, corresponding to FAST being performed on whole blood samples containing ˜30, ˜20 and ˜50 CFU/mL. […] Thus, diluting bacterimic blood specimens 1:9 (v:v) directly into saponin-containing growth medium provides a path to ASTs within 8 hours from initial blood draw, with excellent results matching independent (36-44 hrs) MIC determinations from pure, overnight cultures (˜10^8 CFU/mL) that could only be initiated after (˜24 hr) positive blood culture.

[2] = tested on: E. coli strain Mu890; test: FAST flow cytometry AST with PB-sQF, bacteria recovered from 10% human blood; settings: Mu890 treated with 32 μg/mL (Enterobacteriaceae resistance breakpoint), vs no-antibiotic control
Experimental: (§1) Varied counts of bacteria were mixed with human blood and diluted 1:9 (v/v) with bacterial growth medium to desired bacterial concentrations (<10 CFU/mL final solution) and plated to independently confirm CFU/mL blood. Saponin was immediately added and the samples shaken for 15 minutes to achieve selective blood cell lysis. After hemolysis, bacteria were spun down and washed with PBS. The pellets were resuspended in bacterial growth medium and incubated at 37° C. for 2 hours, followed by another 3-hour incubation with antibiotics at various fractions of the minimum inhibition concentration (MIC, as independently determined by microdilution from the pure starting culture, Table 1) for sensitive strains or at the CLSI MIC resistant breakpoints^(12) for the highly resistant strains. Changes in scattered light signals largely resulting from bacterial growth inhibition were monitored by flow cytometry, and the difference in the 2-D scatter histograms with and without antibiotic treatment was quantified with PB-sQF statistics.^(1) Using PB-sQF, distance was calculated for each antibiotic concentration relative to its own no-antibiotic control and expressed as “fold distance” relative to the 99% confidence limit distance between the no-antibiotic control and the sensitive breakpoint. This allowed comparison of fold distances among all samples as each is individually paired to its own control, as is each replicate.
(§2) To simulate a blood specimen from a patient with bacteremia, the isolates were grown, diluted to the desired CFU/mL in blood (ZenBio, Research Triangle Park, NC) and saponin was added to achieve the final diluted sample. Initial bacterial cultures were prepared using Luria-Bertani (LB) broth for (E. coli) or cation-adjusted Mueller-Hinton broth (CAMHB). The fresh bacterial cultures started from ˜0.05 optical density (OD) by inoculating a 6-mL fresh growth medium with overnight culture were grown in an incubator shaker (MaxQ 4000, Thermal Fisher Scientific, Waltham, MA) at 37° C. and 225 rpm. After the culture reached mid-log phase, bacteria were collected and diluted into ˜10 CFU/mL through serial 10-fold dilutions. Bacterial densities were determined by plating onto LB plates. The final 10-fold dilution was performed by adding 500 μL of 100 CFU/mL into 4500 μL of 10% human blood in medium.
(§3) A 2.5% (w/v) of saponin solution was prepared, sonicated (Branson 2510, Emerson, St. Louis, MO) for 20 minutes and spun down with a clinical centrifuge (Centrific Model 228, Fisher Scientific, Waltham, MA) for 4 minutes. The supernatant cleared of particulates was collected. 500 μL of 2.5% saponin was then added to the 5 mL of 10% human blood sample with ˜10 CFU/mL, described above and the mixtures were shaken at 300 rpm for 15 minutes at 37° C. After the saponin treatment, the bacteria were pelleted and washed with 2 mL of phosphate buffered saline (PBS) (Life Technologies, Carlsbad, CA) using a clinical centrifuge for 2 minutes. Bacterial growth medium (2.5 mL) was then added to the tube and incubated for 2 hours at 37° C. and 225 rpm.
(§4) After the 2-hour incubation, 500-μL aliquots of the suspension were added to each of 4 wells in a 12-well microtiter plate that contained 500 μL of growth medium with or without antibiotic at 2-fold of specified concentrations. The plate was then incubated at 37° C. for 3 hours. Bacteria were collected by centrifugation (Centrifuge 5417R, Eppendorf) and resuspended in 200 μL of PBS for flow cytometry detection. To ensure each clinical isolate was tested at its MIC values of the tested antibiotics, the initial bacterial cultures at the 1000 CFU/mL dilution were also tested for each experiment (FIGS. 4A-4F, 5A-5F, 7A-7F, 8A-8F, and 9A-9F), confirming that the antibiotic concentrations indeed inhibited bacterial growth.
(§5) Cytometric data were collected by BD LSRFortessa flow cytometer (Becton Dickinson, Franklin Lake, NY) equipped with a 100 mW, 488 nm laser for the scatter signal. […]

[3] = tested on: E. coli strain Mu14S; test: as above; settings: Mu14S treated at each resistant breakpoint (tetracycline 16 μg/mL)
Experimental: as §1, §2, §3, §4, §5

[4] = tested on: E. coli Mu14S; test: MIC by broth microdilution AST; settings: for MIC: microdilution from pure culture; for MIC (S/I/R): class according to 2016 CLSI handbook
Experimental: as §1
(§6) All clinical isolates (E. coli strains Mu14S and Mu890, K. pneumoniae strains Mu670 and Mu55, A. nosocomialis strains M2) were obtained from the Georgia Emerging Infection Program (GEIP). The MIC of each isolate was determined by a clinical microbiology laboratory using post blood culture automated AST and confirmed using broth microdilution in our laboratory. The MICs of each strain were measured to be as follows. For A. nosocomialis strain M2, 1 μg/mL tetracycline, 2 μg/mL gentamicin, and >1024 μg/mL ampicillin. For E. coli strain Mu890, 1 μg/mL tetracycline, 8 μg/mL gentamicin, and >1024 μg/mL ampicillin. For E. coli strain Mu14S, >64 μg/mL tetracycline, 8 μg/mL gentamicin, and >1024 μg/mL ampicillin. For K. pneumoniae strain Mu55, >64 μg/mL tetracycline, 1 μg/mL gentamicin, and >1024 μg/mL ampicillin. For K. pneumoniae strain Mu670, 2 μg/mL tetracycline, 4 μg/mL gentamicin, and >1024 μg/mL ampicillin.

[5] = tested on: K. pneumoniae Mu670; test: MIC by broth microdilution AST; settings: for MIC: microdilution from pure culture; for MIC (S/I/R): class according to 2016 CLSI handbook
Experimental: as §1, §6

[6] = tested on: A. nosocomialis M2; test: MIC by broth microdilution AST; settings: for MIC: microdilution from pure culture; for MIC (S/I/R): class according to 2016 CLSI handbook
Experimental: as §1, §6

[7] = tested on: K. pneumoniae Mu55; test: MIC by broth microdilution AST; settings: for MIC: microdilution from pure culture; for MIC (S/I/R): class according to 2016 CLSI handbook
Experimental: as §1, §6

[8] = tested on: E. coli Mu890; test: MIC by broth microdilution AST; settings: for MIC (S/I/R): class according to 2016 CLSI handbook; for MIC: microdilution from pure culture
Experimental: as §1, §6

[9] = tested on: A. nosocomialis strain M2; test: FAST flow cytometry AST with PB-sQF, bacteria recovered from 10% human blood; settings: M2 spiked in 10% human blood, assayed within 8 hrs of simulated blood draw
Experimental: Varied counts of bacteria were mixed with human blood and diluted 1:9 (v/v) with bacterial growth medium to desired bacterial concentrations (<10 CFU/mL final solution) and plated to independently confirm CFU/mL blood. Saponin was immediately added and the samples shaken for 15 minutes to achieve selective blood cell lysis. After hemolysis, bacteria were spun down and washed with PBS. […] This allowed comparison of fold distances among all samples as each is individually paired to its own control, as is each replicate.
To simulate a blood specimen from a patient with bacteremia, the isolates were grown, diluted to the desired CFU/mL in blood (ZenBio, Research Triangle Park, NC) and saponin was added to achieve the final diluted sample. Initial bacterial cultures were prepared using Luria-Bertani (LB) broth for (E. coli) or cation-adjusted Mueller-Hinton broth (CAMHB). The fresh bacterial cultures started from ˜0.05 optical density (OD) by inoculating a 6-mL fresh growth medium with overnight culture were grown in an incubator shaker (MaxQ 4000, Thermal Fisher Scientific, Waltham, MA) at 37° C. and 225 rpm. […] Bacterial densities were determined by plating onto LB plates. […]
Cytometric data were collected by BD LSRFortessa flow cytometer (Becton Dickinson, Franklin Lake, NY) equipped with a 100 mW, 488 nm laser for the scatter signal. […] Data were recorded with FACSDiVa provided by BD. […]

[10] = tested on: E. coli strain ATCC 33456; test: Pre-blood culture AST with sheep blood, flow cytometry and PB-sQF
Experimental: (§7) To search for the condition to separate bacteria from the blood cells, sheep blood was used as a substitute for human blood. In order to remove the blood cells that have a concentration that is 10^6 to 10^7 times higher than the bacteria, 100 μL of 10% (w/v) saponin was added to 1 mL of sheep blood that was spiked with either 100 μL of LB or 10^4 CFU/mL E. coli strain ATCC 33456 (final concentration ˜10^3 CFU/mL) and incubated for 15 minutes at room temperature to lyse the blood cells. The same procedure was applied to 12 samples loaded in eppendorf tubes. These samples were then washed with PBS and resuspended in 500 μL L B broth. All 12 samples were added to the 12-well plate loaded with 480 μL of LB broth and/or penicillin g with 2× higher desired concentrations and 20 μL, 45 μM of MH-IR786. The plate was incubated for 5 hours. Each sample was then collected and analyzed by flow cytometry.

[11] = tested on: E. coli strain ATCC 33456; test: MIC of lab strain E. coli
[12] = tested on: 100% sheep blood only; test: Pre-blood culture AST, 100% sheep blood only samples; settings: no-antibiotic to 1×MIC
Experimental: as §7

[13] = tested on: Lab-strain E. coli (ATCC); test: FAST with low bacterial counts (500 counts by flow cytometry); settings: each antibiotic at MIC, ¼ MIC and 1/16 MIC, bars beyond the 99% confidence line
Description: FIG. 14. Bactericidal Antibiotic-induced changes for low counts of E. coli. Lab-strain E. coli (ATCC) ASTs performed with 500 counts by flow cytometry with gentamicin (Gen), penicillin G (PenG), and tetracycline (Tet) each at MIC, ¼ MIC and 1/16 MIC. This strain is seen to be sensitive to all three antibiotics, as the bars extend beyond the 99% confidence line.
While both morphology and growth inhibition occur upon exposure to antibiotics near the minimum inhibitory concentration, standard ASTs are based on growth inhibition alone. The presence of bacteria is clearly indicated by the presence of a particular scattering peak in the multidimensional histogram. This is much more sensitive and less affected by background than is shifts in a peak resulting from morphological changes upon antibiotic exposure. […] For even a few hundred counts, the presence of a bacterial population can be readily assessed with flow cytometry, but error bars and statistical distances must be properly determined relative to no-antibiotic controls. When too few counts for triplicate runs exist, control and each antibiotic exposure histograms are treated as probability distributions that are representative of the true mother distribution for each condition. Each histogram is binned (either adaptively with probability binning or using regular bins) and the distribution of data within each bin is determined. […]

[14] = Escherichia coli, read-out: MIC
[15] = Klebsiella pneumoniae, read-out: MIC
[16] = Acinetobacter nosocomialis, read-out: MIC
[17] = Escherichia coli, MU890, E. coli Mu890, read-out: MIC

SMILES | MIC [4, 14] [µg/mL] | MIC (S/I/R) [4] | MIC [4] [µg/mL] | MIC [5, 15] [µg/mL] | MIC (S/I/R) [5] | MIC [6, 16] [µg/mL] | MIC (S/I/R) [6] | MIC [6] [µg/mL] | MIC [7, 15] [µg/mL] | MIC (S/I/R) [7] | MIC [7] [µg/mL] | MIC (S/I/R) ([8]; E. coli Mu890) | MIC [8, 17] [µg/mL] | further results
CC1(C)S[C@@H]2[C@H](NC(=O)[C@H](N)c3ccccc3)C(=O)N2[C@H]1C(=O)O [Ampicillin] | > 1020 | (R) | > 1024 | > 1020 | (R) | > 1020 | (R) | > 1024 | > 1020 | (R) | > 1024 | (R) | > 1020 | scattered light histograms change [1]: do not significantly change; FAST antibiotic-induced scatter signal change [2]: indistinguishable from those of the no-antibiotic control; FAST antibiotic-induced scatter signal change [3]: remained statistically unchanged; MIC [5]: > 1024 µg/mL; PB-sQF FAST susceptibility [9]: resistant
CN(C)[C@@H]1C(O)=C(C(N)=O)C(=O)[C@@]2(O)C(O)=C3C(=O)c4c(O)cccc4[C@@](C)(O)[C@H]3C[C@@H]12 [Tetracycline] | > 64 | (R) | >64 | 2 (≈ 4.5 µM) | (S) | 1 (≈ 2.25 µM) | (S) | 1 (≈ 2.25 µM) | > 64 | (R) | >64 | (S) | 1 (≈ 2.25 µM) | MIC ([8]; E. coli Mu890): 1 µg/mL (≈ 2.25 µM); MIC ([8]; E. coli Mu890, listed as tetracycline): 2 µg/mL (≈ 4.5 µM)
CC1(C)S[C@@H]2[C@H](NC(=O)Cc3ccccc3)C(=O)N2[C@H]1C(=O)O [penicillin g] |  |  |  |  |  |  |  |  |  |  |  |  |  | cytometric data, growth inhibition ([10]; 1000 CFU/mL E. coli spiked sheep blood, 1×MIC, 5 hours): clear growth inhibition; PB-sQF distance ([10]; 1000 CFU/mL and 10^5 CFU/mL spiked sheep blood, from 1/16×MIC to 1×MIC): clear increment of distance increases; 1×MIC [11]: 32 µg/mL; cytometric data of blood-only samples [12]: remained very similar to each other; PB-sQF AST susceptibility at low counts [13]: sensitive
